{"source": "patent US3985740A", "about": "“7-[D-(α-amino-α-phenyl-, 2-thienyl- and 3-thienylacetamido)]-3-(5-methylthiazol-2-yl)carbonylthiomethyl-3-cephem -4-carboxylic acids” (Bristol-Myers Company, priority 1974, dated 1976)", "key": {"Pr. morganii A15153": {"test_system": "Pr. morganii A15153", "experiment": "M.I.C. by tube dilution", "assay_type": "cell-based", "details": "Morganella morganii, at 10^-^4 dilution, overnight 37° C., read-out: M.I.C."}, "Sal. enteritidis A9531": {"test_system": "Sal. enteritidis A9531", "experiment": "M.I.C. by tube dilution", "assay_type": "cell-based", "details": "Salmonella enterica, ENTERITIDIS; at 10^-^4 dilution; overnight 37° C.; read-out: M.I.C."}, "S. aureus Smith A9537": {"test_system": "S. aureus Smith A9537", "experiment": "M.I.C. by tube dilution", "assay_type": "cell-based", "details": "Staphylococcus aureus, overnight 37° C., read-out: M.I.C."}, "Str. pyogenes A9604": {"test_system": "Str. pyogenes A9604", "experiment": "M.I.C. by tube dilution", "assay_type": "cell-based", "details": "Streptococcus pyogenes, Str. pyogenes + 5% serum, 50% Nutrient Broth - 45% Antibiotic Assay Broth, overnight 37° C."}, "[1]": {"test_system": "S. aureus BX 1633-2 A9606", "experiment": "M.I.C. by tube dilution", "assay_type": "cell-based", "details": "Staphylococcus aureus, overnight 37° C., read-out: M.I.C."}, "Ser. marcescens A20019": {"test_system": "Ser. marcescens A20019", "experiment": "M.I.C. by tube dilution", "assay_type": "cell-based", "details": "Serratia marcescens"}, "Ps. aeruginosa A9843A": {"test_system": "Ps. aeruginosa A9843A", "experiment": "M.I.C. by tube dilution", "assay_type": "cell-based", "details": "Pseudomonas aeruginosa"}, "E. coli A9675": {"test_system": "E. coli A9675", "experiment": "M.I.C. by tube dilution", "assay_type": "cell-based", "details": "Escherichia coli, A9675; at 10^-^4 dilution; overnight 37° C.; read-out: M.I.C."}, "K. pneumoniae A15130": {"test_system": "K. pneumoniae A15130", "experiment": "M.I.C. by tube dilution", "assay_type": "cell-based", "details": "Klebsiella pneumoniae, A15130; at 10^-^4 dilution; overnight 37° C.; read-out: M.I.C."}, "[2]": {"test_system": "S. aureus methicillin-resistant A15097", "experiment": "M.I.C. by tube dilution", "assay_type": "cell-based", "details": "Staphylococcus aureus, at 10^-^3 dilution, overnight 37° C."}, "[3]": {"experiment": "Blood levels in the mouse after oral administration", "assay_type": "in vivo", "description": "Blood levels in the mouse after oral administration were\ndetermined with the following results:"}, "S. aureus A9748": {"test_system": "S. aureus A9748", "experiment": "M.I.C. by tube dilution", "assay_type": "cell-based", "details": "Staphylococcus aureus, overnight 37° C., read-out: M.I.C."}, "Pr. mirabilis A9900": {"test_system": "Pr. mirabilis A9900", "experiment": "M.I.C. by tube dilution", "assay_type": "cell-based", "details": "Proteus mirabilis, A9900; at 10^-^4 dilution; overnight 37° C.; read-out: M.I.C."}, "D. pneumoniae A9585": {"test_system": "D. pneumoniae A9585", "experiment": "M.I.C. by tube dilution", "assay_type": "cell-based", "details": "Streptococcus pneumoniae, D. pneumoniae + 5% serum, 50% Nutrient Broth - 45% Antibiotic Assay Broth, overnight 37° C."}, "K. pneumoniae A9977": {"test_system": "K. pneumoniae A9977", "experiment": "M.I.C. by tube dilution", "assay_type": "cell-based", "details": "Klebsiella pneumoniae, A9977; at 10^-^4 dilution; overnight 37° C.; read-out: M.I.C."}, "[4]": {"test_system": "certain important pathogenic organisms", "experiment": "In vitro activity in the primary screening tests (overall)", "assay_type": "cell-based", "details": "in words", "text": "This combination of good oral absorption and high antibacterial activity in a cephalosporin while highly desirable is quite uncommon in compounds reported to date. […] To illustrate the unpredictability of oral absorption and antibacterial activity in a closely related series of cephalosporin compounds, Tables 1-8 below compare in vitro activities and oral absorption as tested in the mouse of the compounds of the formula ##SPC12##"}, "E. coli Juhl A15119": {"test_system": "E. coli Juhl A15119", "experiment": "M.I.C. by tube dilution", "assay_type": "cell-based", "details": "Escherichia coli, JUHLA15119"}}, "note": "Where two headings read alike, the source gives them in different places.", "data": [{"smiles": "Cc1cnc(C(=O)SCC2=C(C(=O)O)N3C(=O)C(NC(=O)[C@H](N)c4ccccc4)[C@H]3SC2)s1", "note": "(stereo partly drawn) [Compound 586, 7-[D-(-)-α-Aminophenylacetamido]-3-(5-methylthiazol-2-yl)carbonylthiomethyl-3-cephem-4-carboxylic acid]", "values": [{"measurement": "MIC", "setting": "Pr. morganii A15153", "value": 63, "unit": "µg/mL"}, {"measurement": "MIC", "setting": "Sal. enteritidis A9531", "value": 0.3, "unit": "µg/mL"}, {"measurement": "MIC", "setting": "S. aureus Smith A9537; SMITHA9537, + 50% serum, at 10^-^4 dilution", "value": "> 63", "unit": "µg/mL"}, {"measurement": "MIC", "setting": "S. aureus Smith A9537; SMITHA9537, at 10^-^4 dilution", "value": 0.3, "unit": "µg/mL"}, {"measurement": "MIC", "setting": "Str. pyogenes A9604", "value": 0.3, "unit": "µg/mL"}, {"measurement": "MIC", "setting": "[1]; BX16332A9606, at 10^-^2 dilution", "value": 4, "unit": "µg/mL"}, {"measurement": "MIC", "setting": "[1]; BX16332A9606, at 10^-^3 dilution", "value": 0.6, "unit": "µg/mL"}, {"measurement": "MIC", "setting": "Ser. marcescens A20019", "value": "> 125", "unit": "µg/mL"}, {"measurement": "MIC", "setting": "Ps. aeruginosa A9843A", "value": "> 125", "unit": "µg/mL"}, {"measurement": "MIC", "setting": "E. coli A9675", "value": 4, "unit": "µg/mL"}, {"measurement": "MIC", "setting": "K. pneumoniae A15130", "value": 32, "unit": "µg/mL"}, {"measurement": "MIC", "setting": "[2]", "value": 4, "unit": "µg/mL"}, {"measurement": "concentration at 0.5 h", "setting": "[3]; blood, 100 mg/kg, mouse, oral, 100 mgm./kg., 0.5 hrs. after administration, read-out: Blood Level", "value": 34800, "unit": "ng/mL"}, {"measurement": "concentration at 1 h", "setting": "[3]; blood, 100 mg/kg, mouse, oral, 100 mgm./kg., 1 hr. after administration, read-out: Blood Level", "value": 30700, "unit": "ng/mL"}, {"measurement": "concentration at 2 h", "setting": "[3]; blood, 100 mg/kg, mouse, oral, 100 mgm./kg., 2 hrs. after administration, read-out: Blood Level", "value": 13000, "unit": "ng/mL"}, {"measurement": "concentration at 3.5 h", "setting": "[3]; blood, 100 mg/kg, mouse, oral, 100 mgm./kg., 3.5 hrs. after administration, read-out: Blood Level", "value": 7000, "unit": "ng/mL"}, {"measurement": "oral absorption", "setting": "[3]; in words", "value": "good oral absorption properties"}, {"measurement": "Blood Level", "setting": "[3]; mouse, oral, 100 mgm./kg., 0.5 hrs. after administration", "value": 34800, "unit": "ng/mL"}, {"measurement": "MIC", "setting": "S. aureus A9748; A9748, at 10^-^2 dilution", "value": 63, "unit": "µg/mL"}, {"measurement": "MIC", "setting": "S. aureus A9748; A9748, at 10^-^3 dilution", "value": 8, "unit": "µg/mL"}, {"measurement": "MIC", "setting": "Pr. mirabilis A9900", "value": 16, "unit": "µg/mL"}, {"measurement": "MIC", "setting": "D. pneumoniae A9585", "value": 0.16, "unit": "µg/mL"}, {"measurement": "MIC", "setting": "K. pneumoniae A9977", "value": 4, "unit": "µg/mL"}, {"measurement": "activity relative to cephalexin", "setting": "[4]", "value": "excellent activity relative to cephalexin"}, {"measurement": "MIC", "setting": "E. coli Juhl A15119", "value": 2, "unit": "µg/mL"}]}]}
